Results reported in the supplement of paper PMC10307832.

Compound: CCN1C(=O)C2=CC(=C(N=C2N(C1=O)C3CC3)N)C(=O)N + NC(=O)Nc1cc(-c2cccc(F)c2)sc1C(=O)N[C@H]1CCCNC1 [AZD7762] (partner 0.2 µM)
Experiment: relative viability (nuclei count vs DMSO), 5 days (fraction); higher = more cells survive
In short: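 Relative viability is defined as nuclei in treated wells over nuclei in vehicle wells. Duplicate plates were run and medians reported. Lung cancer cell lines in 1536-well plates were dosed by pin tool one day after seeding, with one drug or with a fixed anchor-drug dose plus five library-drug doses (not always all listed) in √10 steps, and nuclei were counted after 5 days.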

Cell Line	relative viability (first compound 0.253 µM)	relative viability (first compound 0.8 µM)	relative viability (first compound 2.53 µM)	relative viability (first compound 8 µM)
NCI-H596	1.12	0.998	1.26	1.24
NCI-H647	0.537	–	0.547	0.581
NCI-H650	1.14	0.781	0.999	1.3
NCI-H727	0.61	0.534	0.726	0.577
NCI-H838	0.908	0.951	0.961	0.908
NCI-H1355	0.798	0.821	0.756	0.691
NCI-H1395	0.42	0.388	0.428	0.397
NCI-H1437	1.03	1.09	1.17	1.14
NCI-H1651	0.463	0.434	0.442	0.399
NCI-H1666	0.888	0.824	0.909	0.84
NCI-H1703	0.13	0.126	0.164	0.137
NCI-H1734	0.514	0.543	0.51	0.566
NCI-H1755	0.522	0.496	0.408	0.533
NCI-H1792	0.779	0.624	0.693	0.508
NCI-H1793	0.409	0.408	0.649	0.501
NCI-H1915	0.722	0.7	0.712	0.594
NCI-H1944	0.541	0.479	0.528	0.487
NCI-H1975	0.758	0.622	0.83	0.7
NCI-H1993	0.74	0.805	0.847	0.771
NCI-H2085	0.989	0.915	0.921	1.04
NCI-H2087	1.35	1.32	1.36	1.28
NCI-H2126	1.02	0.967	0.941	0.958
NCI-H2170	0.889	0.846	0.882	0.867
NCI-H2347	0.769	0.785	0.695	0.817
NCI-H2405	0.868	–	0.928	0.725
NCI-H3122	0.922	0.967	1.02	0.983
PC-3 [JPC-3]	0.813	–	0.966	0.748
PC-14	0.397	0.288	0.513	0.294
RERF-LC-KJ	1.02	0.826	1.6	1
SW 900	0.601	0.643	0.635	0.633
